Data as given in US6384026B1, “Macrocyclic polyamine lactones and derivatives thereof and their use as arthropod repellents” (Cornell Research Foundation, Inc., priority 1998, dated 2002).

How the values were obtained:
[1] = system: Periplaneta americana (American cockroach); test: Irritancy tests with cockroaches; format: in vivo
[2] = system: ants of the genus Crematogaster; test: Deterrency bioassays with predacious insects: ants; format: in vivo; settings: synthetic samples
From the text: (§1) Synthetic samples of macrocycles PAML 681, PAML 908, and PAML 1362 (structure 6 of FIG. 3, wherein m, n, o, p, q, and r=7) as well as mixtures of synthetic PAML 681 and Vitamin E acetate were used in bioassays with various predacious insects, for example, ladybird beetles (Harmonia axyridis) and ants of the genus Crematogaster.

beetles (Carabidae) = test: Feeding tests with beetles (Carabidae); format: in vivo
[3] = Isomerization (O-to-N acyl transfer) on storage, analysed by HPLC-MS; format: physicochemical; settings: substantially pure samples stored at 25° C. for 2 days
H. axyridis adults = test: Feeding choice bioassay with ladybird beetle (treated vs control moth eggs); format: in vivo, Harmonia axyridis; settings: choice test, moth eggs treated topically with ethyl ether solution vs ethyl ether only
Description: The biological activity of synthetic PAML 681 was also evaluated in a feeding bioassay with a ladybird beetle. The bioassay was a choice test in which individual H. axyridis adults were presented with two offerings of an edible food item, for example, insect eggs of the moth Uthesisia ornatrix, of which one offering was treated by topical application of an ethyl ether solution of PAML 681, while the other offering (“control”) was treated with ethyl ether only. […] Similar experiments were performed with synthetic samples of PAML 908 and PAML 1362, as well as with mixtures of PAML 681 and alpha-tocopherol acetate.

[4] = system: ladybird beetles (Harmonia axyridis); test: Deterrency bioassays with predacious insects: ladybird beetles; format: in vivo; settings: synthetic samples
From the text: as §1

ants = test: Tests with ants on pupal secretion and its tocopherol components; format: in vivo, Crematogaster cerasi; settings: E. borealis pupal secretion and components

## CC1CCCCCCCCC(=O)OCCNC(C)CCCCCCCCC(=O)OCCNC(C)CCCCCCCCC(=O)OCCN1 (centres unmarked) [PAML 681]
[1]
  insect repellent and deterrent activity (irritancy): strong insect repellent and deterrent
[2]
  activity as insect deterrent: highly active as insect deterrents
Beetles (Carabidae)
  insect repellent and deterrent activity: strong insect repellent and deterrent
[3]
  monoamide formed (relative percentage of the total ion current): 7%
H. axyridis adults
  antifeedant activity: strong antifeedant activity
[4]
  activity as insect deterrent: highly active as insect deterrents

## CC(=O)Oc1c(C)c(C)c2c(c1C)CCC(C)(CCC[C@H](C)CCC[C@H](C)CCCC(C)C)O2 (some centres unmarked) [vitamin E acetate, Vitamin E acetate]
ants
  deterrency in tests with ants: essentially inactive

## CC1CCCCCCCCC(=O)OCCNC(C)CCCCCCCCC(=O)OCCNC(C)CCCCCCCCC(=O)OCCNC(C)CCCCCCCCC(=O)OCCN1 (centres unmarked) [PAML 908]
[2]
  activity as insect deterrent: highly active as insect deterrents
[3]
  monoamide formed (relative percentage of the total ion current): 10%
H. axyridis adults
  antifeedant activity: strong antifeedant activity
[4]
  activity as insect deterrent: highly active as insect deterrents
